Measured values taken from US6355799B1, “Substituted benzene compounds, process for their preparation, and herbicidal and defoliant compositions containing them” (ISK Americas Incorporated, priority 1997, dated 2002).

Tests used:
Type in all cases: in vivo
[1] = tested on: field corn (Zea mays L., var. Dekalb 535, CORN); assay: Pre-emerge test, crop safety; conditions: rated 14 days after application, 0 = no damage, 100 = complete death
How it was run: (§1)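 Compounds in acetone were track-sprayed at 15-1000 g ai/ha (187 l/ha) on sandy loam pots: pre-emerge one day after seeding, post-emerge at 2-3 leaf stage with 0.25% v/v non-ionic surfactant. Phytotoxicity was rated 14 days later on a 0 (no damage) to 100 (complete death) scale.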

[2] = tested on: upland rice (Oryza sp., var. Tebonnet, RICE); assay: Pre-emerge test, crop safety; conditions: rated 14 days after application, 0 = no damage, 100 = complete death
How it was run: as §1

[3] = tested on: ivyleaf morningglory (Ipomoea hederacea, IPOHE); assay: Post-emerge test, greenhouse herbicide activity screening; conditions: post-emerge, 14 days after application, rating scale 0-100
How it was run: (§2)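 Fourteen days after spraying, crop and weed injury was graded visually from 0, no effect, to 100, every plant dead. Test substances were dissolved in acetone and applied at 15–1000 g ai/ha with a flat-fan nozzle. Application was either pre-emergence, one day after sowing, or post-emergence at the 2–3 leaf stage.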

[4] = tested on: barnyardgrass (Echinochloa crus-galli, ECHCG); assay: as above; conditions: post-emerge, 14 days after application, rating scale 0-100
How it was run: as §2

[5] = tested on: sicklepod (Cassia obtusifolia, CASOB); assay: as above; conditions: post-emerge, 14 days after application, rating scale 0-100
How it was run: as §2

[6] = tested on: velvetleaf (Abutilon theophrasti, ABUTH); assay: as above; conditions: post-emerge, 14 days after application, rating scale 0-100
How it was run: as §2

[7] = tested on: lambsquarters (Chenopodium album, CHEAL); assay: as above; conditions: post-emerge, 14 days after application, rating scale 0-100
How it was run: as §2

[8] = tested on: large crabgrass (Digitaria sanguinalis, DIGSA); assay: as above; conditions: post-emerge, 14 days after application, rating scale 0-100
How it was run: as §2

[9] = tested on: johnsongrass (Sorghum halepense, SORHA); assay: as above; conditions: post-emerge, 14 days after application, rating scale 0-100
How it was run: as §2

[10] = tested on: common ragweed (Ambrosia artemisizfolia L., AMBEL); assay: as above; conditions: post-emerge, 14 days after application, rating scale 0-100
How it was run: as §2

[11] = tested on: redroot pigweed (Amaranthus retroflexus, AMARE); assay: as above; conditions: post-emerge, 14 days after application, rating scale 0-100
How it was run: as §2

[12] = tested on: redroot pigweed (Amaranthus retroflexus, AMARE); assay: Pre-emerge test, greenhouse herbicide activity screening; conditions: rated 14 days after application, 0 = no damage, 100 = complete death
How it was run: as §1

[13] = tested on: ivyleaf morningglory (Ipomoea hederacea, IPOHE); assay: as above; conditions: rated 14 days after application, 0 = no damage, 100 = complete death
How it was run: (§3)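 Herbicidal damage is scored 0 (none) to 100 (complete plant death) two weeks after a simulated field spray. Rates span 15–1000 g ai/ha, delivered in acetone at 187 l/ha. For post-emergence treatments, plants have 2–3 leaves and the spray carries 0.25% v/v non-ionic surfactant.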

[14] = tested on: barnyardgrass (Echinochloa crus-galli, ECHCG); assay: as above; conditions: rated 14 days after application, 0 = no damage, 100 = complete death
How it was run: as §3

[15] = tested on: sicklepod (Cassia obtusifolia, CASOB); assay: as above; conditions: rated 14 days after application, 0 = no damage, 100 = complete death
How it was run: as §3

[16] = tested on: velvetleaf (Abutilon theophrasti, ABUTH); assay: as above; conditions: rated 14 days after application, 0 = no damage, 100 = complete death
How it was run: as §3

[17] = tested on: lambsquarters (Chenopodium album, CHEAL); assay: as above; conditions: rated 14 days after application, 0 = no damage, 100 = complete death
How it was run: as §3

[18] = tested on: large crabgrass (Digitaria sanguinalis, DIGSA); assay: as above; conditions: rated 14 days after application, 0 = no damage, 100 = complete death
How it was run: as §3

[19] = tested on: johnsongrass (Sorghum halepense, SORHA); assay: as above; conditions: rated 14 days after application, 0 = no damage, 100 = complete death
How it was run: as §3

[20] = tested on: green foxtail (Setaria viridis, SETVI); assay: as above; conditions: rated 14 days after application, 0 = no damage, 100 = complete death
How it was run: as §3

[21] = tested on: common ragweed (Ambrosia artemisizfolia L., AMBEL); assay: as above; conditions: rated 14 days after application, 0 = no damage, 100 = complete death
How it was run: as §3

[22] = tested on: field corn (Zea mays L., var. Dekalb 535, CORN); assay: Post-emerge test, crop safety; conditions: post-emerge, 14 days after application, rating scale 0-100
How it was run: as §3

[23] = tested on: upland rice (Oryza sp., var. Tebonnet, RICE); assay: Post-emerge test, crop safety; conditions: post-emerge, 14 days after application, rating scale 0-100
How it was run: as §3

COc1c(Cl)cc(F)c(-n2c(=O)cc(C(F)(F)F)n(C)c2=O)c1N(C(=O)c1ccc(F)c(F)c1)C(=O)c1ccc(F)c(F)c1 [2-49]
10: Pre-emerge Herbicidal Activity, phytotoxicity rating (0-100), ECHCG ([14]; 250 g ai/ha) | phytotoxicity rating CORN ([22]; 250 g ai/ha) | phytotoxicity rating RICE ([23]; 250 g ai/ha)
50: phytotoxicity rating CASOB ([5]; 250 g ai/ha) | phytotoxicity rating AMBEL ([10]; 63 g ai/ha)
20: Pre-emerge phytotoxicity rating (0-100), crop damage, RICE ([2]; 63 g ai/ha) | phytotoxicity rating AMARE ([11]; 63 g ai/ha) | Pre-emerge Herbicidal Activity, phytotoxicity rating (0-100), DIGSA ([18]; 63 g ai/ha)
80: Pre-emerge Herbicidal Activity, phytotoxicity rating (0-100), SETVI ([20]; 63 g ai/ha)
40: phytotoxicity rating AMBEL ([10]; 250 g ai/ha) | phytotoxicity rating AMARE ([11]; 250 g ai/ha)
30: phytotoxicity rating CASOB ([5]; 63 g ai/ha)
60: Pre-emerge phytotoxicity rating (0-100), crop damage, RICE ([2]; 250 g ai/ha) | phytotoxicity rating CHEAL ([7]; 63 g ai/ha) | phytotoxicity rating CHEAL ([7]; 250 g ai/ha)
95: Pre-emerge Herbicidal Activity, phytotoxicity rating (0-100), SETVI ([20]; 250 g ai/ha)
100: phytotoxicity rating ABUTH ([6]; 250 g ai/ha) | Pre-emerge Herbicidal Activity, phytotoxicity rating (0-100), AMARE ([12]; 63 g ai/ha) | Pre-emerge Herbicidal Activity, phytotoxicity rating (0-100), AMARE ([12]; 250 g ai/ha) | Pre-emerge Herbicidal Activity, phytotoxicity rating (0-100), CASOB ([15]; 250 g ai/ha) | Pre-emerge Herbicidal Activity, phytotoxicity rating (0-100), ABUTH ([16]; 63 g ai/ha) | Pre-emerge Herbicidal Activity, phytotoxicity rating (0-100), ABUTH ([16]; 250 g ai/ha) | Pre-emerge Herbicidal Activity, phytotoxicity rating (0-100), CHEAL ([17]; 63 g ai/ha) | Pre-emerge Herbicidal Activity, phytotoxicity rating (0-100), CHEAL ([17]; 250 g ai/ha) | Pre-emerge Herbicidal Activity, phytotoxicity rating (0-100), DIGSA ([18]; 250 g ai/ha) | Pre-emerge Herbicidal Activity, phytotoxicity rating (0-100), AMBEL ([21]; 63 g ai/ha) | Pre-emerge Herbicidal Activity, phytotoxicity rating (0-100), AMBEL ([21]; 250 g ai/ha)
90: phytotoxicity rating ABUTH ([6]; 63 g ai/ha) | Pre-emerge Herbicidal Activity, phytotoxicity rating (0-100), IPOHE ([13]; 250 g ai/ha)
15: Pre-emerge phytotoxicity rating (0-100), crop damage, CORN ([1]; 250 g ai/ha)
70: phytotoxicity rating IPOHE ([3]; 63 g ai/ha) | phytotoxicity rating IPOHE ([3]; 250 g ai/ha)
0: Pre-emerge phytotoxicity rating (0-100), crop damage, CORN ([1]; 63 g ai/ha) | phytotoxicity rating ECHCG ([4]; 63 g ai/ha) | phytotoxicity rating ECHCG ([4]; 250 g ai/ha) | phytotoxicity rating DIGSA ([8]; 63 g ai/ha) | phytotoxicity rating DIGSA ([8]; 250 g ai/ha) | phytotoxicity rating SORHA ([9]; 63 g ai/ha) | phytotoxicity rating SORHA ([9]; 250 g ai/ha) | Pre-emerge Herbicidal Activity, phytotoxicity rating (0-100), IPOHE ([13]; 63 g ai/ha) | Pre-emerge Herbicidal Activity, phytotoxicity rating (0-100), ECHCG ([14]; 63 g ai/ha) | Pre-emerge Herbicidal Activity, phytotoxicity rating (0-100), CASOB ([15]; 63 g ai/ha) | Pre-emerge Herbicidal Activity, phytotoxicity rating (0-100), SORHA ([19]; 63 g ai/ha) | Pre-emerge Herbicidal Activity, phytotoxicity rating (0-100), SORHA ([19]; 250 g ai/ha) | phytotoxicity rating CORN ([22]; 63 g ai/ha) | phytotoxicity rating RICE ([23]; 63 g ai/ha)

COc1c(Cl)cc(F)c(-n2c(=O)cc(C(F)(F)F)n(C)c2=O)c1NC(=O)c1ccc(OC(F)(F)F)cc1 [2-72]
80: phytotoxicity rating CHEAL ([7]; 250 g ai/ha)
20: Pre-emerge Herbicidal Activity, phytotoxicity rating (0-100), IPOHE ([13]; 63 g ai/ha) | Pre-emerge Herbicidal Activity, phytotoxicity rating (0-100), IPOHE ([13]; 250 g ai/ha) | phytotoxicity rating RICE ([23]; 250 g ai/ha)
90: phytotoxicity rating AMARE ([11]; 250 g ai/ha) | Pre-emerge Herbicidal Activity, phytotoxicity rating (0-100), CASOB ([15]; 250 g ai/ha)
100: phytotoxicity rating ABUTH ([6]; 63 g ai/ha) | phytotoxicity rating ABUTH ([6]; 250 g ai/ha) | Pre-emerge Herbicidal Activity, phytotoxicity rating (0-100), AMARE ([12]; 63 g ai/ha) | Pre-emerge Herbicidal Activity, phytotoxicity rating (0-100), AMARE ([12]; 250 g ai/ha) | Pre-emerge Herbicidal Activity, phytotoxicity rating (0-100), ABUTH ([16]; 63 g ai/ha) | Pre-emerge Herbicidal Activity, phytotoxicity rating (0-100), ABUTH ([16]; 250 g ai/ha) | Pre-emerge Herbicidal Activity, phytotoxicity rating (0-100), CHEAL ([17]; 63 g ai/ha) | Pre-emerge Herbicidal Activity, phytotoxicity rating (0-100), CHEAL ([17]; 250 g ai/ha) | Pre-emerge Herbicidal Activity, phytotoxicity rating (0-100), DIGSA ([18]; 250 g ai/ha) | Pre-emerge Herbicidal Activity, phytotoxicity rating (0-100), SETVI ([20]; 250 g ai/ha)
40: Pre-emerge phytotoxicity rating (0-100), crop damage, RICE ([2]; 250 g ai/ha)
5: Pre-emerge phytotoxicity rating (0-100), crop damage, CORN ([1]; 250 g ai/ha)
10: Pre-emerge phytotoxicity rating (0-100), crop damage, RICE ([2]; 63 g ai/ha) | phytotoxicity rating CORN ([22]; 250 g ai/ha)
70: phytotoxicity rating CASOB ([5]; 63 g ai/ha) | phytotoxicity rating CHEAL ([7]; 63 g ai/ha) | phytotoxicity rating AMBEL ([10]; 63 g ai/ha) | phytotoxicity rating AMARE ([11]; 63 g ai/ha)
0: Pre-emerge phytotoxicity rating (0-100), crop damage, CORN ([1]; 63 g ai/ha) | phytotoxicity rating ECHCG ([4]; 63 g ai/ha) | phytotoxicity rating ECHCG ([4]; 250 g ai/ha) | phytotoxicity rating DIGSA ([8]; 63 g ai/ha) | phytotoxicity rating DIGSA ([8]; 250 g ai/ha) | phytotoxicity rating SORHA ([9]; 63 g ai/ha) | phytotoxicity rating SORHA ([9]; 250 g ai/ha) | Pre-emerge Herbicidal Activity, phytotoxicity rating (0-100), ECHCG ([14]; 63 g ai/ha) | Pre-emerge Herbicidal Activity, phytotoxicity rating (0-100), SORHA ([19]; 63 g ai/ha) | Pre-emerge Herbicidal Activity, phytotoxicity rating (0-100), AMBEL ([21]; 63 g ai/ha) | phytotoxicity rating CORN ([22]; 63 g ai/ha) | phytotoxicity rating RICE ([23]; 63 g ai/ha)
50: phytotoxicity rating IPOHE ([3]; 63 g ai/ha) | Pre-emerge Herbicidal Activity, phytotoxicity rating (0-100), ECHCG ([14]; 250 g ai/ha) | Pre-emerge Herbicidal Activity, phytotoxicity rating (0-100), SORHA ([19]; 250 g ai/ha) | Pre-emerge Herbicidal Activity, phytotoxicity rating (0-100), AMBEL ([21]; 250 g ai/ha)
95: phytotoxicity rating CASOB ([5]; 250 g ai/ha)
30: Pre-emerge Herbicidal Activity, phytotoxicity rating (0-100), CASOB ([15]; 63 g ai/ha) | Pre-emerge Herbicidal Activity, phytotoxicity rating (0-100), DIGSA ([18]; 63 g ai/ha)
60: phytotoxicity rating IPOHE ([3]; 250 g ai/ha) | phytotoxicity rating AMBEL ([10]; 250 g ai/ha) | Pre-emerge Herbicidal Activity, phytotoxicity rating (0-100), SETVI ([20]; 63 g ai/ha)
